Key:
[1] = mRNA encapsulation efficiency of LNP formulations (Quant-it Ribogreen assay with Triton-X100); type: physicochemical; conditions: N/P ratio 3:1, DMPE-PEG2000
Experimental: (§1) A solution of eGFP mRNA (purchased from TriLink Biotechnologies) in citrate buffer was prepared by mixing mRNA dissolved in MilliQ-water, 100 mM citrate buffer (pH 3) and MilliQ-water to give a solution of 50 mM citrate. Lipid solution in ethanol (99.5%) was prepared with four different lipid components: ionizable lipid (see Table 1); cholesterol (Sigma-Aldrich); DSPC (distearoyl phosphatidyl choline, Avanti Polar Lipids Inc); and a polymer-conjugated lipid (see Table 1). The ratio of lipids in all experiments was ionizable lipid/cholesterol/DSPC/polymer-conjugated lipid (50/38.5/10/1.5 mol %). The total concentration of lipids in all experiments was 12.5 mM.
(§2) The mRNA and lipid solutions were mixed in a NanoAssemblr (Precision Nanosystems, Vancouver, BC, Canada) microfluidic mixing system at a mixing ratio of Aq:EtOH=3:1 and a constant flow rate of 12 mL/min. The mRNA in citrate buffer solution was prepared such that, at the time of mixing the ratio between the nitrogen atoms on the ionizable lipid and phosphorus atoms (N/P ratio) on the mRNA chain was either 3:1 or 6:1 (see Table 1).
The final mRNA concentration and encapsulation efficiency percentage (% EE) was measured by Quant-it Ribogreen Assay Kit (ThermoFischer Scientific Inc.) using Triton-X100 to disrupt the LNPs. The mRNA encapsulation efficiency was determined according to the following equation: […]

Female BALB/c mice = test: eGFP expression in the liver at 24 hours after intravenous administration of LNP formulations to mouse (ELISA); type: in vivo; conditions: LNP N/P 3:1, DMPE-PEG2000
Excerpt: Female BALB/c mice were purchased (SPF (Beijing) Laboratory Animal Technology Co. Ltd.) and on arrival were caged in groups of 4 on corncob bedding, with normal diet and were provided tap drinking water ad libitum that was purified and autoclaved before being offered to the animal. The environment was maintained at a target temperature of […] and relative humidity of 40-80%, with a 12-hour light/dark cycle. Animals were acclimatised to the housing conditions for at least 7 days prior to any experimental procedures and were approximately 6-8 weeks of age at the start of dosing
Animals were assigned to respective groups such that the mean body weights for each treatment groups will be equal. N=4 for each treatment group.
Formulations 1, 3, 4, 5, and 6 from Example 58 were each dosed intravenously: Each mouse was removed from its cage and restrained, and then dosed with a slow IV bolus of a formulation in the lateral tail vein at a dose […] of 0.3 mg/kg.
All animals were sacrificed 24 hours after dosing and flowing blood sampling the liver for the animals dosed by the IV route and the liver and muscle at the dose site for the IM dosed animals were harvested for eGFP analysis by ELISA.
Additional LNP formulations were prepared according to the procedures described in Example 46. These formulations were tested using the same protocol as described herein. The results of eGFP expression in the liver at 24 hours after intravenous administration of the formulations were summarized in Tables 3, 4, 5 and 6 below.

[2] = LNP particle size by dynamic light scattering (Zetasizer Nano ZS); type: physicochemical; conditions: N/P ratio 3:1, DMPE-PEG2000
Experimental: as §1, §2
The first 0.2-0.35 mL and the last 0.05-0.1 mL of the LNP suspension prepared were discarded while the rest of the volume was collected as the sample fraction. The size of the mRNA lipid nanoparticles was determined by dynamic light scattering measurements using a Zetasizer Nano ZS from Malvern Instruments Ltd, giving directly the z-average particle diameter. The number-weighted particle size distributions and averages were calculated using a particle refractive index of 1.45.

Row | SMILES | % EE ([1]; Table 5) [%] | Liver eGFP protein (ng/g tissue) (Female BALB/c mice; Table 5, 0.3 mg/kg) | <d>N (nm) ([2]; Table 5) | <d>Z (nm) ([2]; Table 5) | % EE ([1]; Table 6) [%] | Liver eGFP protein (ng/g tissue) (Female BALB/c mice; Table 6, 0.3 mg/kg) | <d>N (nm) ([2]; Table 6) | <d>Z (nm) ([2]; Table 6) | also measured
1 | CCCCCCCCC(CC)OC(=O)CCCCCCCC(CCCCCCCC(=O)OC(CCCCCCCC)CCCCCCCC)NCC1CCOCC1 (stereo not shown) [Compound 39, 1-(heptadecan-9-yl) 17-(undecan-3-yl) 9-(((tetrahydro-2H-pyran-4-yl)methyl)amino)heptadecanedioate] | 97 | 3383.8 | 55 | 69 | – | – | – | – | –
2 | CCCCCCCCC(CC)OC(=O)CCCCCCCC(CCCCCCCC(=O)OC(CCCCCCCC)CCCCCCCC)NCC1CCOC1 (stereo not shown) [Compound 40, 1-(heptadecan-9-yl) 17-(undecan-3-yl) 9-(((tetrahydrofuran-3-yl)methyl)amino)heptadecanedioate] | 97 | 3658.4 | 53 | 70 | – | – | – | – | –
3 | CCCCCCCCC(CC)OC(=O)CCCCCCCC(CCCCCCCC(=O)OC(CCCCCCCC)CCCCCCCC)NCC1COC1 (stereo not shown) [Compound 41, 1-(heptadecan-9-yl) 17-(undecan-3-yl) 9-((oxetan-3-ylmethyl)amino)heptadecanedioate] | 98 | 7390.2 | 54 | 69 | – | – | – | – | –
4 | CCCCCCCCC(CCCCCCCC)OC(=O)CCCCCCCC(CCCCCCCC(=O)OCCC(C)CCCCCC)NC1CC2(COC2)C1 (stereo not shown) [Compound 42, 1-(heptadecan-9-yl) 17-(3-methylnonyl) 9-((2-oxaspiro[3.3]heptan-6-yl)amino)heptadecanedioate] | 94 | 1868.2 | 66 | 84 | – | – | – | – | –
5 | CCCCCCCCC(CCCCCCCC)OC(=O)CCCCCCCC(CCCCCCCC(=O)OCCC(C)CCCCCC)NCC1CCOCC1 (stereo not shown) [Compound 43, 1-(heptadecan-9-yl) 17-(3-methylnonyl) 9-(((tetrahydro-2H-pyran-4-yl)methyl)amino)heptadecanedioate] | 95 | 2590.9 | 62 | 79 | – | – | – | – | –
6 | CCCCCCCCC(CCCCCCCC)OC(=O)CCCCCCCC(CCCCCCCC(=O)OCCC(CC)CCCCCC)NC1CC2(COC2)C1 (stereo not shown) [Compound 44, 1-(3-ethylnonyl) 17-(heptadecan-9-yl) 9-((2-oxaspiro[3.3]heptan-6-yl)amino)heptadecanedioate] | 97 | 6582.0 | 65 | 80 | – | – | – | – | –
7 | CCCCCC(CCCCC)CCOC(=O)CCCCCC(CCCCCC(=O)OCCC(CCCCC)CCCCC)NC1CCOCC1 [Compound 45, bis(3-pentyloctyl) 7-((tetrahydro-2H-pyran-4-yl)amino)tridecanedioate] | – | – | – | – | – | – | – | – | % EE ([1]; Table 4): 88%; Liver eGFP protein (ng/g tissue) (Female BALB/c mice; Table 4, 0.3 mg/kg): 9082.2 ng/g tissue; <d>N (nm) ([2]; Table 4): 60 nm; <d>Z (nm) ([2]; Table 4): 75 nm
8 | CCCCCCCCC(CCCCCCCC)OC(=O)CCCCCCCC(CCCCCCCC(=O)OC(CC)CCCCC)NC1CC2(COC2)C1 (stereo not shown) [Compound 46, 1-(heptadecan-9-yl) 17-(octan-3-yl) 9-((2-oxaspiro[3.3]heptan-6-yl)amino)heptadecanedioate] | – | – | – | – | 93 | 15932.1 | 54 | 73 | –
9 | CCCCCCCCC(CCCCCCCC)OC(=O)CCCCCCCC(CCCCCCCC(=O)OC(CC)CCCC)NCC1CCOC1 (stereo not shown) [Compound 47, 1-(heptadecan-9-yl) 17-(heptan-3-yl) 9-(((tetrahydrofuran-3-yl)methyl)amino)heptadecanedioate] | – | – | – | – | 89 | 13883.6 | 62 | 82 | –
10 | CCCCCCCCC(CCCCCCCC)OC(=O)CCCCCCCC(CCCCCCCC(=O)OC(C)CCCCC)NCC1CCOC1 (stereo not shown) [Compound 48, 1-(heptadecan-9-yl) 17-(heptan-2-yl) 9-(((tetrahydrofuran-3-yl)methyl)amino)heptadecanedioate] | – | – | – | – | 90 | 14749.9 | 60 | 80 | –
11 | CCCCCC(CCCCC)CCOC(=O)CCCCCCCCCC(CCCCC(=O)OCCC(CCCCC)CCCCC)NC1CC2(COC2)C1 (stereo not shown) [Compound 49, bis(3-pentyloctyl) 6-((2-oxaspiro[3.3]heptan-6-yl)amino)hexadecanedioate] | – | – | – | – | 94 | 3934.6 | 55 | 72 | –
12 | CCCCCCCCC(CCC)OC(=O)CCCCCCCC(CCCCCCCC(=O)OC(CCCCCCCC)CCCCCCCC)NC1CC2(COC2)C1 (stereo not shown) [Compound 50, 1-(dodecan-4-yl) 17-(heptadecan-9-yl) 9-((2-oxaspiro[3.3]heptan-6-yl)amino)heptadecanedioate] | – | – | – | – | 97 | 7410.4 | 51 | 65 | –
13 | CCCCCCCCC(CCCCCCCC)OC(=O)CCCCCCCC(CCCCCCCC(=O)OCC1CC1CCCCCC)NCC1COC1 (stereo not shown) [Compound 51, 1-(heptadecan-9-yl) 17-((2-hexylcyclopropyl)methyl) 9-((oxetan-3-ylmethyl)amino)heptadecanedioate] | – | – | – | – | 95 | 3473.8 | 53 | 67 | –
14 | CCCCCCCCC(CCCCCCCC)OC(=O)CCCCCCCC(CCCCCCCC(=O)OCC1CC1CCCCCC)NCC1CCOC1 (stereo not shown) [Compound 52, 1-(heptadecan-9-yl) 17-((2-hexylcyclopropyl)methyl) 9-(((tetrahydrofuran-3-yl)methyl)amino)heptadecanedioate] | – | – | – | – | 95 | 4701.7 | 55 | 71 | –
15 | CCCCCCCCC(CCCCCCCC)OC(=O)CCCCCCCC(CCCCCCCC(=O)OC(C)(C)CCCCCCCC)NC1CC2(COC2)C1 (stereo not shown) [Compound 53, 1-(heptadecan-9-yl) 17-(2-methyldecan-2-yl) 9-((2-oxaspiro[3.3]heptan-6-yl)amino)heptadecanedioate] | – | – | – | – | 96 | 6947.2 | 50 | 65 | –
16 | CCCCCCCCCC(=O)OCCCCCCCC(CCCCCCCC(=O)OC(CCCCCCCC)CCCCCCCC)NC1CC2(COC2)C1 (stereo not shown) [Compound 54, Heptadecan-9-yl 9-((2-oxaspiro[3.3]heptan-6-yl)amino)-16-(decanoyloxy)hexadecanoate] | – | – | – | – | 95 | 10704.5 | 62 | 81 | –

Reference: patent publication US20230181482A1, “LIPIDS FOR DELIVERY OF NUCLEIC ACID SEGMENTS” (AstraZeneca AB, priority 2021, published 2023)
